“Also recorded” adds a separate entry of the source.
Columns and labels:
[1] = test system: C57BL/6 mice immunized with ovalbumin (OVA); assay: Adjuvanticity: subcutaneous immunization with OVA mixed with TLR7 conjugates; type: in vivo, mouse
Experimental: Each ELISA plate contained a titration of a previously quantitated serum to generate a standard curve. […] The various sera samples were tested at a 1:100 dilution.
Spleenocytes were prepared from the harvested spleens.
The efficiency of adjuvanticity was assessed by measurement of the levels and isotypes of the antigen-specific IgG that the vaccine induces, in particular IgG1 and IgG2 (Mosmann, T. R., and Coffman, R. L., ‘TH1 and TH2 cells: different patterns of lymphokine secretion lead to different functional properties’, Annual Review Immunology 7:145-73 (1989)). The groups of C57BL/6 mice (n=5 animals per group) were subcutaneously immunized with OVA (ovalbumin) mixed with TLR7 conjugates. […] Mice immunized with saline or OVA plus vehicle (0.1% DMSO) were used as negative controls.

Solubility observations = type: physicochemical
TLR7 = target: T1, TLR7 (Homo sapiens, UniProt Q9NYK1); assay: Cytokine induction in human PBMC, LUMINEX bead assay; type: cell-based; conditions: 18 hours
T1 construct: endogenous in cells; host or cells: human PBMC from buffy coats (The San Diego Blood Bank)
T1 sequence (Q9NYK1 27-1049): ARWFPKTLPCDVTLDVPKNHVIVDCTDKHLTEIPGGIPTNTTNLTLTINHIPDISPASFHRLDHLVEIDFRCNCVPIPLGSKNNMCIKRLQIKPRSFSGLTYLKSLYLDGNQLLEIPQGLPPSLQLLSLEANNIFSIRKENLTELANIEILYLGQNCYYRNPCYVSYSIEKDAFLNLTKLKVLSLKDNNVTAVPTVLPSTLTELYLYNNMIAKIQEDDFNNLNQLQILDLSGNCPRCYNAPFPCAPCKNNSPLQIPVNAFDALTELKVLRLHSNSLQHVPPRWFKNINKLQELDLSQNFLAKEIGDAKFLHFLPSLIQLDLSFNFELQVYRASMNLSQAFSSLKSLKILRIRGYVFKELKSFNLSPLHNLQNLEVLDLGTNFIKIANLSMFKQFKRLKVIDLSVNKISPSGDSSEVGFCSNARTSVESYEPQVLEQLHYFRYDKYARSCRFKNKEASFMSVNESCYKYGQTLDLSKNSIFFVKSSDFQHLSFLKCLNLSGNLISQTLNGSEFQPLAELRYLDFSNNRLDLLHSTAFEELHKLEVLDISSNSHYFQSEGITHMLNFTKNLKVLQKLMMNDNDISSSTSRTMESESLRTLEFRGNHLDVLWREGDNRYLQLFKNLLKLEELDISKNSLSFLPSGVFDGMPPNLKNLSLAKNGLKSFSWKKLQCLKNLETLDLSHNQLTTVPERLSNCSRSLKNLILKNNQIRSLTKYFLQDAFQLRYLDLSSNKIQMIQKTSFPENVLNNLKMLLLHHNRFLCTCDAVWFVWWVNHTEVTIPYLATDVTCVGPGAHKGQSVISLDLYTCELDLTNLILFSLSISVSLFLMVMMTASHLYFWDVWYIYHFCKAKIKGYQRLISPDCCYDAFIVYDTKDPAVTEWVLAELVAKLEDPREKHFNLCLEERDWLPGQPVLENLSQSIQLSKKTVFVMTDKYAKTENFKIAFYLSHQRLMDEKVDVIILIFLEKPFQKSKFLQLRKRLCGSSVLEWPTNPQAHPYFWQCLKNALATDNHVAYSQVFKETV
Experimental: Human blood peripheral mononuclear cells (PBMC) were isolated from human buffy coats, purchased from The San Diego Blood Bank (San Diego, Calif.), as described in Hayashi, T et al., “Enhancement of innate immunity against Mycobacterium avium infection by immunostimulatory DNA is mediated by indoleamine 2,3-dioxygenase”, Infect Immun 69:6156-64, (2001). PBMC (1×10^6/mL) were incubated with various concentrations of TLR7 conjugates for 18 hours at 37° C., 5% CO2 and culture supernatants were collected. The levels of cytokines (IL-6, TNF-α, or IFNα1) in the supernatants were determined by LUMINEX bead assays (Invitrogen, Carlsbad, Calif.), and the results presented in FIG. 3A-B. Data are mean±SEM of triplicates and are representative of three independent experiments. The minimum detection levels of IL-6, TNF-α, and IFNα1 were 6 pg/mL, 10 pg/mL and 15 pg/mL, respectively.
To further investigate the immunological activities in human cells, human PBMC from three donors were treated with TLR7 conjugates and the levels of IL-6 and IFNa1 were determined by LUMINEX assay (FIG. 3A-B).

C57BL/6 mice [2] = assay: In vivo evaluation of adverse effects of TLR7 conjugates; conditions: 10 nmoles per mouse with OVA
Experimental: Immunological reaction initiation (e.g. adjuvanticity) by TLR7 conjugates was also examined. Groups (n=5) of C57BL/6 mice were subcutaneously immunized with 20 μg ovalbumin (OVA) mixed with approximately 10 nmol of various TLR7 conjugates, on days 0 and 7, where 10 nmol is a dosage target for the TLR7 portion of the conjugate, and the actual amount will be dependent on the actual chemical formula of each conjugate. […] Sera were collected on days 0, 7, 14, 21, 28, 42 and 56. Mice immunized with saline or OVA mixed with vehicle served as controls. Mice were sacrificed on day 56 and the spleens were harvested for preparation of splenocytes and histological slides. Approximately 200 microliters of a 2.5×10^6/mL spleen cell stock were aliquoted into round-bottom tissue culture microtiter plates in triplicate in a total volume of 200 μl RPMI 1640 complete medium [RPMI1640 (Irvine Scientific, Irvine, Calif.) supplemented with 10% heat-inactivated FCS, 2 mM L-glutamine, and 100 U/mL penicillin/100 μg/mL streptomycin] and restimulated with either 100 μg/mL OVA or medium alone. […] Sections 5 μm thick were stained with hematoxylin and eosin (H&E) and evaluated under the microscope. […]
Therefore, as part of the experimental protocol, body weight and skin reaction (at site of injection) of the mice immunized, with lipid-TLR7 agonist conjugates, was monitored. […]

C57BL/6 mice [3] = assay: Serum transferred arthritis (K/BxN serum); type: in vivo, mouse
Experimental: The anti-inflammatory efficacy of TLR7 agonist-PEG conjugates was tested in mouse models of human inflammatory diseases (serum transfer arthritis, experimental allergic encephalomyelitis (EAE) (see above), and thioglycollate induced peritonitis).

[4] = test system: pro-inflammatory cytokines (IL-6, TNF-α) in sera; assay: In vivo kinetics of pro-inflammatory cytokine induction after intravenous injection; design: species or system mouse
Experimental: The pharmacokinetics of pro inflammatory cytokine induction by TLR7 conjugates was examined using 6- to 8-week old C57BL/6 mice. […] Blood samples were collected 2, 4, 6, 24 or 48 hours after injections. Sera were separated and kept at −20° C. until use.

C57BL/6 mice [5] = assay: MOG induced experimental autoimmune encephalomyelitis (EAE)
Experimental: The effect of compound (8) on experimental autoimmune encephalomyelitis (EAE) was determined using C57BL/6 mice treated with myelin oligodendrocyte glycoprotein (MOG).
Treatment with MOG (or MOG peptides) may be used to induce EAE. Mice were treated with MOG protein for 6 days. On day 6 and onward (see FIG. 8), 50 nmoles of compound (8) or PBS were intravenously (i.v.) injected everyday. EAE clinical scores were used as a clinical metric for demyelination and were determined visually.
MOG protein was also used to evaluate potential adverse effect of various TLR7 conjugates, as described above. Evaluation of the results were by observation of various symptoms associated with MOG induced EAE (e.g., brain inflammation, demyelination of neurons and the like).

C57BL/6 mice [6] = assay: Thioglycolate induced peritonitis (peritoneal neutrophil infiltration); conditions: for cell infiltration, particularly neutrophil, to the peritoneal cavity: three days
Experimental: Peritoneal cells were collected four hours after TG injection. Total cells were counted by haematocytometer and neutrophils were morphologically identified.
4 hours post TG injection total peritoneal cells were harvested and counted. Neutrophils were identified morphologically and counted.
One day after the last treatment, mice received intraperitoneal injection of 2 ml thioglycollate medium. […] Three hours after the thioglycollate injection, neutrophil infiltration to the peritoneum was evaluated.

[7] = 50 nmoles i.v. for three days before thioglycolate

CCCCCCCC/C=C\CCCCCCCC(=O)OCC(COP(=O)(O)OCCNC(=O)c1ccc(Cn2c(=O)[nH]c3c(N)nc(OCCOC)nc32)cc1)OC(=O)CCCCCCC/C=C\CCCCCCCC (stereo not drawn) [Compound 6, 2-(4-((6-amino-2-(2-methoxyethoxy)-8-oxo-7H-purin-9(8H)-yl)methyl)benzamido)ethyl 2,3-bis(oleoyloxy)propyl phosphate]
onset of induction of anti-OVA antibodies ([1]; OVA mixed with conjugate, s.c., days 0 and 7): 14 days
OVA-specific IFNγ secretion by spleen cells ([1]; day 56 splenocytes restimulated with OVA): enhanced
anti-OVA IgG2a levels ([1]; serum, ELISA, days 0-56): continuously increased; also recorded: rapid elevation; also recorded: sustained and further accelerated levels
dissolution in suitable solvents for testing (Solubility observations): difficulty in dissolution
order of TLR7 conjugate potency (TLR7): (4b)>(6)>(9)>/=SM>(8)
average body weights versus mice injected saline (C57BL/6 mice [2]): No significant differences

COCCOc1nc(N)c2nc(O)n(Cc3ccc(C(=O)NCCOCCOCCOCCOCCOCCOCCOCCOCCOCCOCCn4cc(CCC(=O)O)nn4)cc3)c2n1 [Compound 8, 3-(1-(1-(4-((6-amino-8-hydroxy-2-(2-methoxyethoxy)-9H-purin-9-yl)methyl)phenyl)-1-oxo-5,8,11,14,17,20,23,26,29,32-decaoxa-2-azatetratriacontan-34-yl)-1H-1,2,3-triazol-4-yl)propanoic acid]
solubility in aqueous solution (Solubility observations): improves dramatically
paw swelling (C57BL/6 mice [3]; daily gavage): reduced paw swelling
paw swelling (C57BL/6 mice [3]; daily subcutaneous injection): reduced paw swelling
order of TLR7 conjugate potency (TLR7): (4b)>(6)>(9)>/=SM>(8)
IL-6 induction in serum ([4]; 200 nmol per animal i.v.): only a low level
TNFα induction in serum ([4]; 200 nmol per animal i.v., any point post injection): no significant induction
IL-6 or TNFα stimulating activity ([4]; FIGS. 4A-B): little or no IL-6 or TNFα stimulating activity
antagonistic activity ([4]; concluded from FIGS. 4A-B, 7A-B and 8): antagonistic activity under certain conditions
EAE clinical score / severity of symptoms (C57BL/6 mice [5]; 50 nmoles i.v. every day from day 6, days 11-17): significantly reduces the severity of EAE symptoms
adverse reaction (C57BL/6 mice [5]; mouse, in vivo): no additional adverse reaction
neutrophils recruited to the peritoneum (C57BL/6 mice [6]; [7]): reduction
total cells recruited to the peritoneum (C57BL/6 mice [6]; [7]): reduction
adverse reaction compared to TG (C57BL/6 mice [6]; mouse, in vivo): no additional adverse reaction
cell infiltration, particularly neutrophil, to the peritoneal cavity (C57BL/6 mice [6]; oral route): reduced cell infiltration
cell infiltration, particularly neutrophil, to the peritoneal cavity (C57BL/6 mice [6]; systemic (intravenous) route): reduced cell infiltration

CCCCCCCC/C=C\CCCCCCCC(=O)OCC(COP(=O)(O)OCCNC(=O)CCc1cn(CCOCCOCCOCCOCCOCCOCCOCCOCCOCCOCCNC(=O)c2ccc(Cn3c(O)nc4c(N)nc(OCCOC)nc43)cc2)nn1)OC(=O)CCCCCCC/C=C\CCCCCCCC (stereo not drawn) [Compound 9, 2-(3-(1-(1-(4-((6-amino-8-hydroxy-2-(2-methoxyethoxy)-9H-purin-9-yl)methyl)phenyl)-1-oxo-5,8,11,14,17,20,23,26,29,32-decaoxa-2-azatetratriacontan-34-yl)-1H-1,2,3-triazole-4-yl)propanamido)ethyl 2,3-bis(oleoyloxy)propyl phosphate]
Th1 response (IgG2a levels) ([1]; mouse, in vivo): minimal Th1 response
Th2 immune response (IgG1 levels) ([1]; mouse, in vivo): induce a Th2 immune response
order of TLR7 conjugate potency (TLR7): (4b)>(6)>(9)>/=SM>(8)
